Nine molecules from PubChem BioAssay AID192 (DTP/NCI, 2004) can be followed below.

Where “and” joins values, the source holds several entries; their conditions need not be identical. Identical values can stand only once. Inconclusive results and toxic doses are left out.

The subject of the assay is BDF1 mice, B16 melanoma ip, median survival T/C. Put plainly: NCI In Vivo Anticancer Drug Screen. Data for tumor model B16 Melanoma (intraperitoneal) in B6D2F1 (BDF1) mice. The conditions noted are these: endpoint: median survival time, higher = longer survival. Put shortly:
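Each result divides a survival or tumor-size measurement in the compound-treated group by the same measurement in the vehicle group.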

Where [1] appears, read: dose: 20.0 mg/kg/injection, schedule: Q01DX009 (ip), vehicle: saline with Tween-80.

Consider `NC(=S)N/N=C/c1ccc2c(c1)OCO2`, for which the T/C is 106 % of control (dose: 50.0 mg/kg/injection, schedule: Q04DX003 (ip), vehicle: saline with Tween-80); 106 % of control (dose: 100.0 mg/kg/injection, schedule: Q04DX003 (ip), vehicle: saline with Tween-80); 110 % of control (dose: 200.0 mg/kg/injection, schedule: Q04DX003 (ip), vehicle: saline with Tween-80).
Take `O=C1C(=O)c2ccccc2C(O)=C1CCCc1ccc(OCc2ccccc2)cc1`: the T/C was 101 % of control (dose: 5.0 mg/kg/injection, schedule: Q01DX009 (ip), vehicle: saline with Tween-80); 100 % of control (dose: 10.0 mg/kg/injection, schedule: Q01DX009 (ip), vehicle: saline with Tween-80); 103 % of control under setting [1].
Take `[Cl][Pt+2][Cl].[NH-]c1cc2ccccc2cc1[NH-]`: the T/C is, setting by setting: under setting [1], 113 % of control; (dose: 40.0 mg/kg/injection, schedule: Q01DX009 (ip), vehicle: saline with Tween-80) 122 % of control; (dose: 80.0 mg/kg/injection, schedule: Q01DX009 (ip), vehicle: saline with Tween-80) 120 % of control; (dose: 160.0 mg/kg/injection, schedule: Q01DX009 (ip), vehicle: saline with Tween-80) 87 % of control; (dose: 320.0 mg/kg/injection, schedule: Q01DX009 (ip), vehicle: saline with Tween-80) 118 % of control.
Take `NC(N)=Nc1cc2ccccc2c2ccccc12`: the T/C was 93 % of control (dose: 5.0 mg/kg/injection, schedule: Q01DX009 (ip), vehicle: saline); 111 % of control (dose: 10.0 mg/kg/injection, schedule: Q01DX009 (ip), vehicle: saline); 120 % of control (dose: 20.0 mg/kg/injection, schedule: Q01DX009 (ip), vehicle: saline).
Regarding `O=C(Nc1cccc2ccccc12)Oc1ccccc1Cc1ccccc1`, the T/C reads like this: (dose: 100.0 mg/kg/injection, schedule: Q04DX003 (ip), vehicle: saline) 100 % of control; (dose: 200.0 mg/kg/injection, schedule: Q04DX003 (ip), vehicle: saline) 106 % of control; (dose: 400.0 mg/kg/injection, schedule: Q04DX003 (ip), vehicle: saline) 106 % of control.
Consider `Clc1cc(CBr)c(Cl)c(Cl)c1CBr`, for which the T/C (dose: 1.56 mg/kg/injection, schedule: Q01DX009 (ip), vehicle: Klucel (hydroxypropylcellulose) (HPC)) is 94 % of control; the T/C (dose: 3.12 mg/kg/injection, schedule: Q01DX009 (ip), vehicle: Klucel (hydroxypropylcellulose) (HPC)) was 88 % of control; the T/C (dose: 6.25 mg/kg/injection, schedule: Q01DX009 (ip), vehicle: Klucel (hydroxypropylcellulose) (HPC)) was 94 % of control; the T/C (dose: 12.5 mg/kg/injection, schedule: Q01DX009 (ip), vehicle: Klucel (hydroxypropylcellulose) (HPC)) is 92 % of control.
For the molecule `O=NN(CCCl)C(=O)NCCCl`, the T/C was 102 % of control (dose: 0.25 mg/kg/injection, schedule: Q01DX009 (ip), vehicle: saline with Tween-80); 105 % of control and 110 % of control (dose: 0.5 mg/kg/injection, schedule: Q01DX009 (ip), vehicle: saline + alcohol); 109 % of control (dose: 0.5 mg/kg/injection, schedule: Q01DX009 (ip), vehicle: saline with Tween-80); 108 % of control and 115 % of control (dose: 1.0 mg/kg/injection, schedule: Q01DX009 (ip), vehicle: saline + alcohol); 110 % of control and 113 % of control (2×) (dose: 1.0 mg/kg/injection, schedule: Q01DX009 (ip), vehicle: saline with Tween-80); 113 % of control and 116 % of control (dose: 1.5 mg/kg/injection, schedule: Q01DX009 (ip), vehicle: alcohol). Further, the T/C by setting is: (dose: 1.5 mg/kg/injection, schedule: Q01DX009 (ip), vehicle: other) 95 % of control and 104 % of control; (dose: 1.87 mg/kg/injection, schedule: Q01DX009 (ip), vehicle: saline) 115 % of control; (dose: 1.9 mg/kg/injection, schedule: Q01DX001 (ip), vehicle: saline) 115 % of control; (dose: 2.0 mg/kg/injection, schedule: Q01DX009 (ip), vehicle: saline + alcohol) 109 % of control and 118 % of control; (dose: 2.0 mg/kg/injection, schedule: Q01DX009 (ip), vehicle: saline with Tween-80) 109 % of control and 115 % of control and 122 % of control; (dose: 2.0 mg/kg/injection, schedule: Q04DX003 (ip), vehicle: saline + alcohol) 118 % of control. For the same molecule, the T/C is, setting by setting: (dose: 3.0 mg/kg/injection, schedule: Q01DX009 (ip), vehicle: other) 105 % of control and 114 % of control; (dose: 3.75 mg/kg/injection, schedule: Q01DX001 (ip), vehicle: saline) 115 % of control; (dose: 4.0 mg/kg/injection, schedule: Q01DX009 (ip), vehicle: saline with Tween-80) 152 % of control; (dose: 5.0 mg/kg/injection, schedule: Q01DX001 (ip), vehicle: saline + alcohol) 111 % of control and 122 % of control; (dose: 5.0 mg/kg/injection, schedule: Q01DX009 (ip), vehicle: other) 190 % of control; (dose: 5.0 mg/kg/injection, schedule: Q04DX003 (ip), vehicle: saline + alcohol) 113 % of control and 115 % of control. Further, the T/C (dose: 6.0 mg/kg/injection, schedule: Q01DX009 (ip), vehicle: alcohol) is 160 % of control and 188 % of control; the T/C (dose: 6.0 mg/kg/injection, schedule: Q01DX009 (ip), vehicle: other) was 171 % of control and 179 % of control; the T/C (dose: 7.5 mg/kg/injection, schedule: Q01DX001 (ip), vehicle: saline) is 119 % of control; the T/C (dose: 7.5 mg/kg/injection, schedule: Q01DX009 (ip), vehicle: saline) is 192 % of control; the T/C (dose: 8.0 mg/kg/injection, schedule: Q01DX001 (ip), vehicle: saline + alcohol) was 107 % of control; the T/C (dose: 8.0 mg/kg/injection, schedule: Q01DX009 (ip), vehicle: saline + alcohol) is 207 % of control and 221 % of control. The T/C is, setting by setting: (dose: 8.0 mg/kg/injection, schedule: Q01DX009 (ip), vehicle: saline with Tween-80) 165 % of control and 168 % of control and 183 % of control; (dose: 8.0 mg/kg/injection, schedule: Q04DX003 (ip), vehicle: saline + alcohol) 111 % of control; (dose: 10.0 mg/kg/injection, schedule: Q01DX001 (ip), vehicle: saline) 121 % of control; (dose: 12.0 mg/kg/injection, schedule: Q01DX009 (ip), vehicle: other) 153 % of control; (dose: 15.0 mg/kg/injection, schedule: Q01DX009 (ip), vehicle: saline) 200 % of control; (dose: 16.0 mg/kg/injection, schedule: Q01DX009 (ip), vehicle: saline + alcohol) 53 % of control and 65 % of control. The T/C reads like this: (dose: 16.0 mg/kg/injection, schedule: Q04DX003 (ip), vehicle: saline + alcohol) 186 % of control; (dose: 20.0 mg/kg/injection, schedule: Q01DX001 (ip), vehicle: saline) 154 % of control; (dose: 20.0 mg/kg/injection, schedule: Q04DX003 (ip), vehicle: saline + alcohol) 157 % of control and 210 % of control and 229 % of control; (dose: 30.0 mg/kg/injection, schedule: Q01DX001 (ip), vehicle: saline + alcohol) 154 % of control; (dose: 30.0 mg/kg/injection, schedule: Q01DX001 (ip), vehicle: saline) 189 % of control; (dose: 32.0 mg/kg/injection, schedule: Q01DX009 (ip), vehicle: saline + alcohol) 40 % of control and 44 % of control. The T/C was 248 % of control (dose: 32.0 mg/kg/injection, schedule: Q04DX003 (ip), vehicle: saline + alcohol); 207 % of control (dose: 40.0 mg/kg/injection, schedule: Q01DX001 (ip), vehicle: saline); 62 % of control and 80 % of control (dose: 40.0 mg/kg/injection, schedule: Q04DX003 (ip), vehicle: saline + alcohol); 106 % of control (dose: 60.0 mg/kg/injection, schedule: Q01DX001 (ip), vehicle: saline); 42 % of control (dose: 64.0 mg/kg/injection, schedule: Q01DX001 (ip), vehicle: saline + alcohol); 28 % of control and 30 % of control (dose: 64.0 mg/kg/injection, schedule: Q01DX009 (ip), vehicle: saline + alcohol). In addition, the T/C was 43 % of control (dose: 64.0 mg/kg/injection, schedule: Q04DX003 (ip), vehicle: saline + alcohol); 37 % of control (dose: 128.0 mg/kg/injection, schedule: Q04DX003 (ip), vehicle: saline + alcohol); 20 % of control (dose: 256.0 mg/kg/injection, schedule: Q04DX003 (ip), vehicle: saline + alcohol).
For the molecule `CS(=O)(=O)OCCN1CCC2(CC1)SSC1(CCN(CCOS(C)(=O)=O)CC1)S2`, the T/C is 106 % of control (dose: 3.13 mg/kg/injection, schedule: Q01DX009 (ip), vehicle: saline) and 106 % of control (dose: 6.25 mg/kg/injection, schedule: Q01DX009 (ip), vehicle: saline).
Consider `C[N+](C)(CCO)Cc1ccccc1`, for which the T/C is 95 % of control (dose: 50.0 mg/kg/injection, schedule: Q01DX009 (ip), vehicle: saline with Tween-80) and 90 % of control (dose: 100.0 mg/kg/injection, schedule: Q01DX009 (ip), vehicle: saline with Tween-80).
